Reference: PubChem BioAssay AID366 (MTDP, 2006)
The source made the active and inactive calls. How the calls were made is not given here.

target: Ribonuclease H1 (Homo sapiens) (UniProt O60930); assay: human RNase H1 inhibitors, dose response, biochemical, FRET RNA/DNA duplex cleavage (AID 366); settings: fluorescence;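 further: potency is for inhibitors that lower RNA cleavage and so lower fluorescence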
Sequence (O60930 whole entry, looked up): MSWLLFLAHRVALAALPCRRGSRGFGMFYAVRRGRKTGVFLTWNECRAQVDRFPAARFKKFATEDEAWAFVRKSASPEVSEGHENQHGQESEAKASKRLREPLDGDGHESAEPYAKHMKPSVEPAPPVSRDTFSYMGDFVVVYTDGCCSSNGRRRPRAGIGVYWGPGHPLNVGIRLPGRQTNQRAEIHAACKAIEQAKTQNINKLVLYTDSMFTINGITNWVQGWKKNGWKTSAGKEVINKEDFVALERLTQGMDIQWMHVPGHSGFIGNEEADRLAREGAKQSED

For `O=C(O)c1c(Br)c(Br)c(Br)c(Br)c1C1c2ccc(O)cc2Oc2cc(O)ccc21`, which IC50 is on record?
Its IC50 is 900 nM.

With `Cc1ccc(C)n1-c1ccc(Br)cc1C(=O)O` as the compound, how does the IC50 read?
Its IC50 is 9000 nM.

`O=c1c(O)c(-c2cc(O)c(O)c(O)c2)oc2cc(O)cc(O)c12` was tested. Which IC50 did it give?
Its IC50 is 3000 nM.

With `NC(=O)c1c(NC(=O)COc2ccccc2)sc2c1CCCCC2` as the compound, how does the IC50 read?
Its IC50 is 3800 nM.

Which IC50 does the source give for `COc1ccc(C(=O)NC(=S)Nc2ccc3nn(-c4ccc(C)c(Cl)c4)nc3c2)cc1[N+](=O)[O-]` here?
The IC50 was 560 nM.

With `Cc1c(O)c(Br)c(C)c(O)c1Br` (tested in a mixture with another compound) as the compound, how does the IC50 read?
The IC50 was “inactive”.

With `O=C(O)c1cc(-c2ccc(/C=C3/Sc4ccccc4C3=O)o2)ccc1O` as the compound, how does the IC50 read?
The IC50 was 400 nM.

`Cc1ccc(C)n1-c1ccc(SCC(=O)O)cc1` was tested. Which IC50 did it give?
The IC50 was 1200 nM.

Which IC50 does the source give for `CN(C)CN1CSC(=S)N(CN(C)C)C1` here?
The IC50 was “inactive”.

For `CCOc1ccc(N2C(=O)/C(=C/c3ccc(I)o3)C(=O)NC2=S)cc1`, which IC50 is on record?
The IC50 was 2000 nM.

`C=CC1=C(C)C2=NC1=CC1=NC(=CC3=C(C)C4=C(O)C(C(=O)OC)C(=C5NC(=C2)C(C)C5CCC(=O)OC/C=C(\C)CCCC(C)CCCC(C)CCCC(C)C)C4=N3)C(CC)=C1C` (stereo unspecified) was tested. Which IC50 did it give?
The IC50 was > 100000 nM (inactive).

`COc1cc(C=O)ccc1OCCCOc1cccc(Oc2ccccc2)c1` was tested. Which IC50 did it give?
Its IC50 is 6000 nM.

With `CC(C)=CCC(O)C1=CC(=O)c2c(O)ccc(O)c2C1=O` (stereo unspecified) as the compound, how does the IC50 read?
Its IC50 is 4200 nM.

How did the IC50 turn out when `O=C(O)/C=C/c1c2ccc(=O)c(O)c-2oc2c(O)c(O)ccc12` was run?
The IC50 was 50 nM.

`Cc1ccc(-c2cc(C(=O)Nc3sc(C(=O)OC(C)C)c(C)c3C(N)=O)c3ccccc3n2)s1` was tested. Which IC50 did it give?
Its IC50 is 800 nM.

`O=C1C=CC(=O)c2c(O)cccc21` was tested. Which IC50 did it give?
The IC50 was 500 nM.

How did the IC50 turn out when `Cc1ccc(C(=O)Nc2sc(C)c(C)c2C(N)=O)cc1` was run?
The IC50 was 800 nM.

`O=[N+]([O-])c1ccc2c(N=Nc3ccc4ccccc4c3O)c(O)cc(S(=O)(=O)O)c2c1` was tested. Which IC50 did it give?
The IC50 was 300 nM.

For `O=C1C=CC2=C3c4cc(O)c(O)cc4CC3(O)COC2=C1O` (stereo unspecified), which IC50 is on record?
The IC50 was 200 nM.

Which IC50 does the source give for `O=C(O)C1Nc2c(Cl)cc(Cl)cc2C2C=CCC12` (stereo unspecified) here?
Its IC50 is 8800 nM.

How did the IC50 turn out when `CC(C)=CCC/C(C)=C/Cc1cc(/C=C/c2cc(O)c(C/C=C(\C)CCC=C(C)C)c(O)c2)cc(O)c1O` was run?
Its IC50 is 1300 nM.

With `CC1=C(C)CC(C(=O)Nc2ccc(N3C(=O)c4ccccc4C3=O)cc2)C(C(=O)O)C1` (stereo unspecified) as the compound, how does the IC50 read?
Its IC50 is “inactive”.

`O=C1Nc2ccc(I)cc2C1(O)N1CCOCC1` (stereo unspecified) was tested. Which IC50 did it give?
Its IC50 is 400 nM.

With `Nc1ccc(S(=O)(=O)O)c2cccc(O)c12` as the compound, how does the IC50 read?
Its IC50 is 4500 nM.

Which IC50 does the source give for `Cc1cccc(NC(=O)c2c(NC(=O)c3ccc([N+](=O)[O-])cc3)sc3c2CCCC3)c1` here?
Its IC50 is 580 nM.

With `CC(C)=CCC1=C(O)[C@@](O)(CC=C(C)C)C(=O)C(C(=O)CC(C)C)=C1O` as the compound, how does the IC50 read?
The IC50 was 2000 nM.

`Oc1ccc(/C=N/Nc2nncc(-c3ccccc3)n2)c(O)c1O` was tested. Which IC50 did it give?
Its IC50 is 1100 nM.

For `COc1cc([C@@H]2c3cc4c(cc3C[C@H]3COC(=O)[C@@H]32)OCO4)cc(OC)c1O`, which IC50 is on record?
The IC50 was 1800 nM.

With `O=C(N/N=C/c1ccccc1Cl)c1cc(O)c(O)c(O)c1` as the compound, how does the IC50 read?
Its IC50 is “inactive”.

`O=C1C=C/C(=N\S(=O)(=O)c2cc(Cl)ccc2Cl)C=C1Cl` was tested. Which IC50 did it give?
Its IC50 is 1600 nM.

For `Cc1nn(CC(=O)Nc2sc(C)c(C)c2C(N)=O)c(C)c1[N+](=O)[O-]`, which IC50 is on record?
The IC50 was 6000 nM.

Which IC50 does the source give for `CCc1c(O)c2c(c(O)c1C(C)=O)C(=O)c1c(cc(O)c(C(=O)O)c1C(=O)O)C2=O` here?
Its IC50 is 3600 nM.

For `C=CC(C)(C)C12CC3C(=O)N/C(=C\c4cnc[nH]4)C(=O)N3C1Nc1ccccc12` (stereo unspecified), which IC50 is on record?
The IC50 was “inactive”.

For `FC(F)(F)c1nc2ccc(SSc3ccc4nc(C(F)(F)F)[nH]c4c3)cc2[nH]1`, which IC50 is on record?
The IC50 was 1700 nM.

For `C=C(CCC(C(=O)O)C1CCC2(C)C3=C(CCC12C)C1(C)CCC(O)C(C)(C)C1CC3)C(C)C` (stereo unspecified), which IC50 is on record?
Its IC50 is 4800 nM.

With `O=C1NC(=O)/C(=C/c2ccc(-c3ccc(O)c(C(=O)O)c3)o2)S1` as the compound, how does the IC50 read?
Its IC50 is 200 nM.

For `COC([CH2][Hg][n]1cnc2c1c(=O)n(C)c(=O)n2C)CN1C(=O)c2ccccc2S1(=O)=O` (stereo unspecified), which IC50 is on record?
Its IC50 is 3300 nM.

`COc1ccccc1NC(=O)c1c(NC(=O)Cc2ccccc2)sc2c1CCCCC2` was tested. Which IC50 did it give?
The IC50 was 480 nM.

For `O=C(Nc1ccc(N2CCN(C(=O)c3ccccc3)CC2)cc1)c1ccc(-c2ccccc2)cc1`, which IC50 is on record?
Its IC50 is 350 nM.

With `Cc1cccc(NCC(=O)N/N=C\c2c(Br)cc(Br)c(O)c2Br)c1` as the compound, how does the IC50 read?
Its IC50 is “inactive”.

For `CCC(=O)Nc1sc2c(c1C(=O)Nc1ccc(OC)cc1)CCCCC2`, which IC50 is on record?
The IC50 was 9000 nM.

Which IC50 does the source give for `C[N+](C)=c1ccc2nc3c(cc(Nc4ccccc4)c4ccccc43)oc-2c1` here?
Its IC50 is 1600 nM.

For `CC(C)=CCC[C@]1(C)[C@@H](CC=C(C)C)C[C@@]2(CC=C(C)C)C(=O)/C(=C(\O)c3ccc(O)c(O)c3)C(=O)[C@]1(CC=C(C)C)C2=O`, which IC50 is on record?
Its IC50 is 3200 nM.

How did the IC50 turn out when `C[C@H]1[C@H](O)c2c(c3c(c4c(-c5ccccc5)cc(=O)oc24)OC(C)(C)C=C3)O[C@@H]1C` was run?
Its IC50 is 9000 nM.

How did the IC50 turn out when `COc1ccc(N2C(=O)/C(=C\c3cn(CC(=O)Nc4ccccc4)c4ccccc34)C(=O)NC2=S)cc1` was run?
Its IC50 is 620 nM.

With `O=C(Cc1ccccc1Cl)c1ccc(O)c(O)c1O` as the compound, how does the IC50 read?
The IC50 was “inactive”.

`O=[N+]([O-])c1cc(Cc2cc([N+](=O)[O-])c3cccnc3c2O)c(O)c2ncccc12` was tested. Which IC50 did it give?
Its IC50 is 500 nM.

With `Cc1ccc(-n2c(/C=C/c3ccc(O)c(O)c3)nc3ccccc3c2=O)cc1` as the compound, how does the IC50 read?
Its IC50 is 7300 nM.

With `C=CCN1C(=O)/C(=C\c2ccc([N+](=O)[O-])o2)C(=O)NC1=S` as the compound, how does the IC50 read?
The IC50 was “inactive”.

Which IC50 does the source give for `O=C(NC(=S)Nc1cc(-c2nc3ccccc3s2)ccc1Cl)c1ccc(F)cc1` here?
Its IC50 is 800 nM.

With `O=C1/C(=C/c2ccc(O)c(O)c2)SC(=S)N1C1CCCCC1` as the compound, how does the IC50 read?
The IC50 was 1800 nM.

How did the IC50 turn out when `Cc1ccc(-c2n[nH]c(=S)n2/N=C/c2ccc(O)c(O)c2O)cc1` was run?
Its IC50 is “inactive”.

`COc1ccc2c(c1)N(C(=O)CN1C(=O)c3ccccc3C1=O)C(C)(C)c1ssc(=S)c1-2` was tested. Which IC50 did it give?
The IC50 was “inactive”.

With `O=C1C(Cl)=C(NC(=O)c2ccccc2)C(=O)C(Cl)=C1NC(=O)c1ccccc1` as the compound, how does the IC50 read?
Its IC50 is “inactive”.

With `CC(=O)C1=C(O)[C@@]2(O)C(=O)c3c(c(C)c4ccc(C)c(O)c4c3O)C[C@H]2[C@@H](N)C1=O` as the compound, how does the IC50 read?
Its IC50 is 700 nM.

With `Cc1ccc(-c2c(C#N)c(SCC(=O)c3ccc(O)c(O)c3)nc3c2CCCC3)o1` as the compound, how does the IC50 read?
Its IC50 is 1500 nM.

`Cc1sc2nc(-c3ccc([N+](=O)[O-])cc3)[nH]c(=O)c2c1C` was tested. Which IC50 did it give?
Its IC50 is 900 nM.

`O=C1c2ccccc2C(=O)N1c1ccc(-c2nc3ccc(N4C(=O)c5ccccc5C4=O)cc3[nH]2)cc1` was tested. Which IC50 did it give?
The IC50 was 540 nM.

How did the IC50 turn out when `Cc1ccc(N2C(=O)/C(=C/c3ccc(O)c(O)c3)SC2=S)cc1C` was run?
The IC50 was 4000 nM.

Which IC50 does the source give for `COc1c(OC)c(O)c2c(=O)cc(-c3ccc(O)c(O)c3)oc2c1OC` here?
Its IC50 is “inactive”.

`COc1cccc2cc(C(N)=O)c(=O)oc12` was tested. Which IC50 did it give?
The IC50 was “inactive”.
